Read-outs that look alike come from different tables or passages of the source.
Target: T1, LXRα (Homo sapiens, UniProt Q13133)
T1 construct: Co-transfection expression plasmids, comprising full-length LXRα (pCMX-h LXRα); expressed in transfected cells; host or cells: CV-1 African green monkey kidney cells, transient transfection with FuGENE6
T1 sequence (Q13133 1-447): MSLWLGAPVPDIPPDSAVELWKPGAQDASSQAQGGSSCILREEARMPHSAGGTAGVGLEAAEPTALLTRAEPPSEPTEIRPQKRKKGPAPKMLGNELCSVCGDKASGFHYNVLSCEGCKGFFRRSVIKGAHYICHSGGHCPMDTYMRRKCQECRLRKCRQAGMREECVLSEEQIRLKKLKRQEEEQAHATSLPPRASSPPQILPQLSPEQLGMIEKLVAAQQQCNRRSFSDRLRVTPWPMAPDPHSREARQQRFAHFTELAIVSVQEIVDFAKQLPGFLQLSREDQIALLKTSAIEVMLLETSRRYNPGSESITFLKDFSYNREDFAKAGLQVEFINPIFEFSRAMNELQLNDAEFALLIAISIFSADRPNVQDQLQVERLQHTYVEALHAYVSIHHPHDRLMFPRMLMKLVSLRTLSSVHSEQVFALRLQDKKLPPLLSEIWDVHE
T1 sequence (P19793 1-462 partner): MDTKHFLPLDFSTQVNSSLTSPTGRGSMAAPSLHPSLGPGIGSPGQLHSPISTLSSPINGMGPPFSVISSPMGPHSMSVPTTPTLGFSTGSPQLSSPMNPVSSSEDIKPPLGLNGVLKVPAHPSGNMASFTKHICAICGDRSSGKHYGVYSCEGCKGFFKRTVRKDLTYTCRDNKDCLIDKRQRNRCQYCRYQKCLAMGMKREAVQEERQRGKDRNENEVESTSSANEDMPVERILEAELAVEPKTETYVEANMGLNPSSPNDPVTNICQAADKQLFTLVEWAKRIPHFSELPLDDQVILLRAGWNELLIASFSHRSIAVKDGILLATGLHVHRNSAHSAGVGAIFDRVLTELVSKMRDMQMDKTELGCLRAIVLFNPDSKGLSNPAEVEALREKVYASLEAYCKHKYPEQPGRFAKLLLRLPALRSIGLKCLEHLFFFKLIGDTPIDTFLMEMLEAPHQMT
Assay: LXR/LXRE co-transfection assay (LXRα)
Format: cell-based
Conditions: for EC50: CV-1 cells, LXRE luciferase reporter; for Emax: read-out: LXRα Eff (%)
From the text: To measure the ability of compounds to activate or inhibit the transcriptional activity of LXR in a cell based assay, the co-transfection assay was used. It has been shown that LXR functions as a heterodimer with RXR. For the co-transfection assay, expression plasmids for LXRα and LXRβ are introduced separately via transient transfection into mammalian cells along with a luciferase reporter plasmid that contains one copy of a DNA sequence that is bound by LXR-RXR heterodimers (LXRE; Willy, P. et. al. 1995). LXRs heterodimerize with the endogenous RXR. Treatment of transfected cells with an LXR agonist increases the transcriptional activity of LXR, which is measured by an increase in luciferase activity.
Co-transfection expression plasmids, comprising full-length LXRα (pCMX-h LXRα or LXRβ (pCMX-hLXRβ), reporter plasmid (LXREx1-Tk-Luciferase), and control (pCMX-Galactosidase expression vector) (Willey et al. Genes & Development 9 1033-1045 (1995)).
CV-1 cells were prepared 24 hours prior to the experiment by plating them into T-175 flasks or 500 cm^2 dishes in order to achieve 70-80% confluency on the day of the transfection. The number of cells to be transfected was determined by the number of plates to be screened. Each well of a 384 well plate requires ˜8000 cells. DNA Transfection Reagent was prepared by mixing the required plasmid DNAs with a cationic lipid transfection reagent FuGENE6 (Roche) by following the instructions provided with the reagents. Optimal DNA amounts were determined empirically per cell line and size of vessel to be transfected. For each T175 cm^2 flask a total of 20 μg of DNA, 60 μl of Fugene 6 and 1 ml of Optimem was mixed and added. Cells were then incubated at least 5 hours at 37° C. to prepare screening cells.
Assay plates were prepared by dispensing 5 μL, of compound per well of a 384 well plate to achieve final compound concentration of 10 μM and no more than 0.5% DMSO. Media was removed from the screening cells, the cells trypsinized, harvested cells by centrifugation, counted, and plated at a density of approximately 8000 cells per well in the 384 well assay plate prepared above in a volume of about 45 μL. Assay plates containing both compounds and screening cells (50 μL, in total volume) were incubated for 20 hours at 37° C.
After incubation with compounds, media was removed from the cells and luciferase assay reagent (30 μL/well) added. After ˜2 minutes at ambient temperature, the assay plates were read on a luminometer (PE Biosystems Northstar reader with on-board injectors, or equivalent).
The LXR/LXRE co-transfection assay can be used to establish the EC50/IC50 values for potency and percent activity or inhibition for efficacy. Efficacy defines the activity of a compound relative to a high control ((N-(3-((4-fluorophenyl)-(naphthalene-2-sulfonyl)amino)propyl)-2,2-dimethylpropionamide)) or a low control (DMSO/vehicle). The dose response curves are generated from a 10 point curve with concentrations differing by ½ LOG units.
The data from this assay is fitted to the following equation, from which the EC50 value may be solved: Y=Bottom+(Top−Bottom)/(1+10^((logEC50-X)*HillSlope)).
The EC50/IC50 is therefore defined as the concentration at which an agonist or antagonist elicits a response that is half way between the Top (maximum) and Bottom (baseline) values. The EC50/IC50 values represented are the averages of at least 2 and normally 3 independent experiments. The determination of the relative efficacy or % control for an agonist is by comparison to the maximum response achieved by ((N-(3-((4-fluorophenyl)-(naphthalene-2-sulfonyl)-amino)propyl)-2,2-dimethylpropionamide) that is measured individually in each dose response experiment.

[1] = efficacy relative to high control N-(3-((4-fluorophenyl)-(naphthalene-2-sulfonyl)amino)propyl)-2,2-dimethylpropionamide

CC(C)(O)c1cn(-c2ccc(-c3cc(F)c(CO)c(S(C)(=O)=O)c3)cc2Cl)c(Cc2ccc(F)cc2Cl)n1 [Example 13, 2-(1-(3-chloro-3′-fluoro-4′-(hydroxymethyl)-5′-(methylsulfonyl)biphenyl-4-yl)-2-(2-chloro-4-fluorobenzyl)-1H-imidazol-4-yl)propan-2-ol]
EC50: < 100 nM
Emax [1]: 18%

CC(C)(O)c1cn(-c2ccc(-c3cc(F)c(CO)c(S(C)(=O)=O)c3)cc2)c(Cc2cc(F)ccc2Cl)n1 [Example 19, 2-[2-(2-Chloro-5-fluoro-benzyl)-1-(3′-fluoro-4′-hydroxymethyl-5′-methanesulfonyl-biphenyl-4-yl)-1H-imidazol-4-yl]-propan-2-ol]
EC50: > 1000 nM

CC(C)(O)c1cn(-c2ccc(-c3cc(F)c(CO)c(S(C)(=O)=O)c3)cc2F)c(Cc2ccccc2Cl)n1 [Example 20, 2-[2-(2-Chloro-benzyl)-1-(3,3′-difluoro-4′-hydroxymethyl-5′-methanesulfonyl-biphenyl-4-yl)-1H-imidazol-4-yl]-propan-2-ol]
EC50: 101 to 1000 nM
Emax [1]: 15%

CC(C)(O)c1cn(-c2ccc(-c3cc(F)c(CO)c(S(C)(=O)=O)c3)cc2F)c(C(C)(C)c2c(F)cccc2Cl)n1 [Example 7, 2-(2-(2-(2-chloro-6-fluorophenyl)propan-2-yl)-1-(3,3′-difluoro-4′-(hydroxymethyl)-5′-(methylsulfonyl)biphenyl-4-yl)-1H-imidazol-4-yl)propan-2-ol]
EC50: < 100 nM
Emax [1]: 15%

CC(C)(O)c1cn(-c2ccc(-c3cc(F)c(CO)c(S(C)(=O)=O)c3)cc2)c(C(C)(C)c2cccc(F)c2Cl)n1 [Example 4, 2-(2-(2-(2-chloro-3-fluorophenyl)propan-2-yl)-1-(3′-fluoro-4′-(hydroxymethyl)-5′-(methylsulfonyl)biphenyl-4-yl)-1H-imidazol-4-yl)propan-2-ol]
Emax [1]: 12%

CC(C)(O)c1cn(-c2ccc(-c3cc(F)c(CO)c(S(C)(=O)=O)c3)cc2)c(Cc2c(Cl)cccc2Cl)n1 [Example 18, 2-(2-(2,6-dichlorobenzyl)-1-(3′-fluoro-4′-(hydroxymethyl)-5′-(methylsulfonyl)biphenyl-4-yl)-1H-imidazol-4-yl)propan-2-ol]
EC50: < 100 nM
Emax [1]: 17%

CC(C)(O)c1cn(-c2ccc(-c3cc(F)c(CO)c(S(C)(=O)=O)c3)cc2)c(Cc2ccc(Cl)cc2Cl)n1 [Example 15, 2-(2-(2,4-dichlorobenzyl)-1-(3′-fluoro-4′-(hydroxymethyl)-5′-(methylsulfonyl)biphenyl-4-yl)-1H-imidazol-4-yl)propan-2-ol]
EC50: < 100 nM
Emax [1]: 8%

CC(C)(O)c1cn(-c2ccc(-c3cc(F)c(CO)c(S(C)(=O)=O)c3)cc2F)c(C(C)(C)c2c(Cl)cccc2Cl)n1 [Example 9, 2-(2-(2-(2,6-dichlorophenyl)propan-2-yl)-1-(3,3′-difluoro-4′-(hydroxymethyl)-5′-(methylsulfonyl)biphenyl-4-yl)-1H-imidazol-4-yl)propan-2-ol]
Emax [1]: 20%

CC(C)(O)c1cn(-c2ccc(-c3cc(F)c(CO)c(S(C)(=O)=O)c3)cc2F)c(Cc2ccc(F)cc2Cl)n1 [Example 14, 2-(2-(2-chloro-4-fluorobenzyl)-1-(3,3′-difluoro-4′-(hydroxymethyl)-5′-(methylsulfonyl)biphenyl-4-yl)-1H-imidazol-4-yl)propan-2-ol]
EC50: < 100 nM
Emax [1]: 15%

Cc1cc(-c2cc(F)c(CO)c(S(C)(=O)=O)c2)ccc1-n1cc(C(C)(C)O)nc1C(C)(C)c1c(F)cccc1Cl [Example 2, 2-(2-(2-(2-chloro-6-fluorophenyl)propan-2-yl)-1-(3′-fluoro-4′-(hydroxymethyl)-3-methyl-5′-(methylsulfonyl)biphenyl-4-yl)-1H-imidazol-4-yl)propan-2-ol]
EC50: < 100 nM
Emax [1]: 10%

CC(C)(O)c1cn(-c2ccc(-c3cc(F)c(CO)c(S(C)(=O)=O)c3)cc2F)c(C(C)(C)c2ccccc2Cl)n1 [Example 6, 2-(2-(2-(2-Chloro-phenyl)propan-2-yl)-1-(3,3′-difluoro-4′-hydroxymethyl-5′-(methylsulfonyl)biphenyl-4-yl)-1H-imidazol-4-yl)-propan-2-ol]
EC50: < 100 nM
Emax [1]: 25%

CC(c1c(Cl)cccc1Cl)c1nc(C(C)(C)O)cn1-c1ccc(-c2cc(F)c(CO)c(S(C)(=O)=O)c2)cc1F (centres unmarked) [Example 21, 2-{2-[1-(2,6-dichlorophenyl)ethyl]-1-[3,3′-difluoro-4′-(hydroxymethyl)-5′-(methylsulfonyl)biphenyl-4-yl]-1H-imidazol-4-yl}propan-2-ol]
EC50: < 100 nM
Emax: 18%

CC(C)(O)c1cn(-c2ccc(-c3cc(F)c(CO)c(S(C)(=O)=O)c3)cc2Cl)c(C(C)(C)c2c(Cl)cccc2Cl)n1 [Example 3, 2-(1-(3-chloro-3′-fluoro-4′-(hydroxymethyl)-5′-(methylsulfonyl)biphenyl-4-yl)-2-(2-(2,6-dichlorophenyl)propan-2-yl)-1H-imidazol-4-yl)propan-2-ol]
EC50: < 100 nM
Emax [1]: 6%

CC(C)(O)c1cn(-c2ccc(-c3cc(F)c(CO)c(S(C)(=O)=O)c3)cc2)c(C(C)(C)c2ccccc2F)n1 [Example 1, 2-(1-(3′-fluoro-4′-(hydroxymethyl)-5′-(methylsulfonyl)biphenyl-4-yl)-2-(2-(2-fluorophenyl)propan-2-yl)-1H-imidazol-4-yl)propan-2-ol]
EC50: 101 to 1000 nM
Emax [1]: 13%

CC(C)(O)c1cn(-c2ccc(-c3cc(F)c(CO)c(S(C)(=O)=O)c3)cc2F)c(Cc2ccccc2C(F)(F)F)n1 [Example 12, 2-(1-(3,3′-difluoro-4′-(hydroxymethyl)-5′-(methylsulfonyl)biphenyl-4-yl)-2-(2-(trifluoromethyl)benzyl)-1H-imidazol-4-yl)propan-2-ol]
EC50: < 100 nM
Emax [1]: 13%

CC(C)(O)c1cn(-c2ccc(-c3cc(F)c(CO)c(S(C)(=O)=O)c3)cc2F)c(Cc2ccccc2F)n1 [Example 16, 2-(1-(3,3′-difluoro-4′-(hydroxymethyl)-5′-(methylsulfonyl)biphenyl-4-yl)-2-(2-fluorobenzyl)-1H-imidazol-4-yl)propan-2-ol]
EC50: < 100 nM
Emax [1]: 19%

Reference: patent US8618154B2, “LXR modulators” (Bristol-Myers Squibb Company, priority 2009, dated 2013)
